Data published in patent publication US11944613B2, “CYP2J2 antagonists in the treatment of pain” (FRAUNHOFER-GESELLSCHAFT ZUR FÖRDERUNG DER ANGEWANDTEN …, priority 2014, dated 2024).
Structures can show the parent of a compound that is named as a salt.

Assays:
TRPV1 = TRPV1 (Mus musculus, UniProt Q704Y3); test: Calcium imaging: TRPV1 sensitization, double capsaicin stimulation of DRG neurons; conditions: inhibitor 10 μM, preincubation 1 h; 9,10-EpOME 1 μM
Experimental: (a) DRG neurons were double-stimulated with capsaicin (200 nM, 15 s each) and incubated with either vehicle or 9,10-EpOME [1 μM] for two minutes prior to the second capsaicin stimulation. (b) Dose-dependent difference in ratio between the first and the second capsaicin response using the same protocol as described in (a). Data represent the mean ±SEM of the following number of neurons: 27 (control), 26 (250 nM 9,10-EpOME), 21 (500 nM 9,10-EpOME), 19 (750 nM 9,10-EpOME), 41 (1 μM 9,10-EpOME), 18 (2 μM 9,10-EpOME) or 28 (using 50 μM AITC for 20 s instead of capsaicin); *p<0.05, **p<0.01, ***p<0.001 student's t-test.
Data represent mean ±SEM of 15 (vehicle), 19 (EpOME) or 33 neurons (EpOME with H89 preincubation). […] Data represent mean ±SEM of 18 (vehicle), 23 (EpOME) or 39 neurons (EpOME with GFX preincubation); *p<0.05, **p<0.01 student's t-test; n.s. not significant.
Murine DRGs were dissected from spinal segments and directly transferred to ice cold HBSS with CaCl2 and MgCl2 (Invitrogen, Carsbad, CA, USA). Next, isolated DRGs were incubated with collagenase/dispase (500 U/ml Collagenase; 2.5 U/ml Dispase) in neurobasal medium containing L-glutamine [2 mM] penicillin (100 U/ml), streptomycin (100 μg/ml), B-27 and gentamicin (50 μg/ml) (all from Invitrogen, Carlsbad, CA, USA) at 37° C. for 75 min. […]

wild type BL/6N mice = test: Thermal and mechanical thresholds after intraplantar or intrathecal 9,10-EpOME; assay type: in vivo, mouse
Experimental: FIG. 5: Intraplantar or intrathecal injection of 9,10-EpOME reduces pain thresholds and sensitizes capsaicin induced mechanical thresholds in wild type mice. (a) and (b) C57B1/6N mice received an intraplantar injection of 9,10-EpOME (10 μM) or vehicle (DMSO 0.3% (v/v) in saline). Thermal (a) or mechanical (b) thresholds were monitored for 5 h post injection. Data represents mean ±SEM from eight mice. (c) and (d) Wild type BL/6N mice were injected intrathecally with 9,10-EpOME (10 μM) or vehicle (DMSO 0.3% (v/v) in saline). Thermal (c) or mechanical (d) thresholds were monitored for 2 h (thermal) or 3 h (mechanical) post injection with 15 minute intervals for the first hour and 30 minute intervals for the second hour. Data represents mean ±SEM from eight mice. Die Abbildungen sind nicht mitgeliefert
For the determination of mechanical allodynia or thermal hypersensitivity, mice were kept in test cages on an elevated grid for at least 2 h to allow accommodation. Baseline measurements were performed using a Dynamic Plantar Aesthesiometer or a Hargreaves Apparatus (Ugo Basile, Comerio, VA, Italy) detecting withdrawal latency of the hind paws after mechanical stimulation. For the assessment of the mechanical thresholds, the steel rod was pushed against the mid-plantar hind paw with linear ascending force (0-5 g over 10 seconds, increasing 0.5 g/s) until a fast withdrawal response occurred. Slow movements of the paw were not counted. Paw withdrawal latencies (PWL) were determined in seconds (s) ±0.1 with a cut-off time of 20 s. The non-injected and injected paws were measured alternately in intervals of 5-10 min. For determination of thermal thresholds, mice were kept in test cages on a warmed glass plate (32° C.) for at least 2 h on the first day to allow accommodation. Then, the mid-plantar region of the paws was stimulated with a radiant heat device, consisting of a high intensity projector lamp, until withdrawal occurred. The non-injected and injected paws were measured alternately in intervals of 5-10 min. For all behavioral tests the investigator was blinded for treatment or genotype of the mice.
Treatments: For peripheral injections, 20 μl of 9,10-EpOME [5 μM] (Cayman, Ann Arbor, MI, USA) were injected subcutaneously (s.c.) in the mid-plantar area of the hind paw. […]
The inventors then tested the Galphas-coupled prostanoid receptors for their potential involvement in 9,10-EpOME dependent TRPV1 sensitization in calcium imaging experiments. […] To characterize in vivo effects of 9,10-EpOME, the inventors injected the lipid in hind paws of wild type BL/6N mice and measured the thermal (FIG. 5A) and mechanical thresholds (FIG. 5B) up to 5 h post injection. […] The inventors then injected 9,10-EpOME intrathecally and measured thermal and mechanical thresholds in short time intervals. […]

DRG neurons = test: Calcium imaging: 9,10-EpOME-evoked calcium transients in DRG neurons; assay type: cell-based, mouse; conditions: 9,10-EpOME 10 μM, 30 s; antagonist pre-incubated two minutes; AMG 9810 1 μM, HC-030031 20 μM
Experimental: FIG. 2: Direct effects of 9,10-EpOME on DRG-neurons. (a) Application of 9,10-EpOME [10 μM, 30 s] causes calcium transients on DRG neurons which respond to high potassium (50 mM KCl, 30 s). A representative trace is shown. (b) Dose response relationship of 9,10-EpOME dependent calcium increases in DRG neurons related to the number of responding neurons Data represents the mean ±SEM of five measurements per concentration. (c) and (d) Calcium transients caused by 9,10-EpOME [10 μM, 30 s] can be disrupted using calcium-free medium containing EGTA (2 mM) washed in 2 minutes before and after 9,10-EpOME stimulation. Data represents the mean ±SEM of 24 (calcium-free) or 16 (control) neurons. (e) and (f) Calcium transients of 9,10-EpOME [10 μM, 30 s] can be blocked by a selective TRPV1 antagonist (AMG 9810, 1 μM) but not by a selective TRPA1 antagonist (HC-030031, 20 μM) washed in for two minutes prior to the second 9,10-EpOME stimulation. Data represents the mean ±SEM of 16 (control), 31 (AMG 9810) or 18 (HC-030031) neurons; **p<0.01, student's t-test.
Next, the inventors characterized 9,10-EpOME concerning its effects on DRG-neurons in calcium imaging experiments. […]

CYP2J6 = target: T1, CYP2J6 (Mus musculus, UniProt O54750); test: LC-MS/MS epoxylipid levels in tissues of paclitaxel treated mice after terfenadine; assay type: in vivo
T1 construct: the inventors dissected the sciatic nerve, DRGs and the dorsal spinal cord and quantified epoxylipids in these tissues; from tissue; host or cells: sciatic nerve, DRGs, dorsal spinal cord and plasma of paclitaxel-treated C57BL/6N mice
T1 sequence (O54750 1-501): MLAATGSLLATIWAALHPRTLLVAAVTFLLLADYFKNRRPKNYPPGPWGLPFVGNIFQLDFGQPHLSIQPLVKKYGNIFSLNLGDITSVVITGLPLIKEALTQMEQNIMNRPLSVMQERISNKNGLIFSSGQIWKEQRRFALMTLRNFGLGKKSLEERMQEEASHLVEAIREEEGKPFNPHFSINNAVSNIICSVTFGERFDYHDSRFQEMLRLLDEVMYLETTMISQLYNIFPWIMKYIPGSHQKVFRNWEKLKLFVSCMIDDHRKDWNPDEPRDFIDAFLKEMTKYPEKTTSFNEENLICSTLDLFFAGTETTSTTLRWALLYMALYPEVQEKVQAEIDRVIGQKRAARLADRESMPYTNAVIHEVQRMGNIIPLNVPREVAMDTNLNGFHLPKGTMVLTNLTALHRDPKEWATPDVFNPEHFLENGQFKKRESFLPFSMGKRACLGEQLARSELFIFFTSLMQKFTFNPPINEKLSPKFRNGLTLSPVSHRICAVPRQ
Experimental: (b) Remaining concentrations of all measured epoxylipids and dihydro-metabolites (9,10-EpOME, 12,13-EpOME, 9,10-DiHOME, 12,13-DiHOME and 14,15-EET) in sciatic nerve, DRGs, dorsal horn of the spinal cord and plasma after administration of terfenadine (1 mg·kg-1).
Sample extraction and standards: Sample extraction was performed as described previously. Briefly, stock solutions with 2500 ng/ml of all analytes were prepared in methanol. Working standards were obtained by further dilution with a concentration range of 0.1-250 ng/ml for EETs, EpOMEs and DiHOMEs and HODEs Sample extraction was performed with liquid-liquid-extraction. Therefore tissue or cell culture medium was extracted twice with 600 μl ethyl acetate. The combined organic phases were removed at a temperature of 45° C. under a gentle stream of nitrogen. The residues were reconstituted with 50 μl of methanol/water/(50:50, v/v), centrifuged for 2 min at 10,000×g and then transferred to glass vials (Macherey-Nagel, Düren, Germany) prior to injection into the LC-MS/MS system.
Instrumentation for measuring epoxylipids and HODEs: The LC-MS/MS system consisted of an API 4000 triple quadrupole mass spectrometer (Applied Biosystems, Darmstadt, Germany), equipped with a Turbo-V-source operating in negative ESI mode, an Agilent 1100 binary HPLC pump and degasser (Agilent, Waldbronn, Germany) and an HTC Pal autosampler (Chromtech, Idstein, Germany) fitted with a 25 μL LEAP syringe (Axel Semrau GmbH, Sprockhövel, Germany). High purity nitrogen for the mass spectrometer was produced by a NGM 22-LC-MS nitrogen generator (cmc Instruments, Eschborn, Germany). […] Quantification was performed with Analyst Software V 1.4.2 (Applied Biosystems, Darmstadt, Germany) employing the internal standard method (isotope-dilution mass spectrometry). Ratios of analyte peak area and internal standard area (y-axis) were plotted against concentration (x-axis) and calibration curves were calculated by least square regression with 1/concentration2 weighting.

[1] = test system: paclitaxel-induced CIPNP in mice
Experimental: (a) Levels of 9,10-EpOME shown in % of control determined by LC-MS/MS in sciatic nerves, DRGs and the dorsal horn of the spinal cord eight days after treatment with paclitaxel (6 mg·kg-1 i.p. and 1 mg·kg-1 terfenadine (grey) or vehicle (2% DMSO v/v, black)) Data represents mean ±SEM from the DRGs of five mice per group; *p<0.05, **p<0.01, student's t-test. (b) Remaining concentrations of all measured epoxylipids and dihydro-metabolites (9,10-EpOME, 12,13-EpOME, 9,10-DiHOME, 12,13-DiHOME and 14,15-EET) in sciatic nerve, DRGs, dorsal horn of the spinal cord and plasma after administration of terfenadine (1 mg·kg-1). (c) Mechanical thresholds of mice treated with paclitaxel for eight days (6 mg·kg-1 i.p.) that received an intravenous injection of terfenadine (1 or 2 mg kg-1) or vehicle (DMSO 2.5 or 5% (v/v)). The mechanical thresholds were monitored up to 5 h after injection of terfenadine or vehicle. Data represent mean ±SEM from 8-9 mice per group; #, *p<0.05, two-way ANOVA with Bonferroni post hoc test (*1 mg kg-1, #2 mg kg-1 terfenadine). […] Data represent mean ±SEM from 6-9 mice per group.
Paclitaxel was solved in Cremophor EL/Ethanol 1:1 and diluted in saline. The dose for intraperitoneal injection was set to 6 mg/kg as described previously.
For the determination of mechanical allodynia or thermal hypersensitivity, mice were kept in test cages on an elevated grid for at least 2 h to allow accommodation. Baseline measurements were performed using a Dynamic Plantar Aesthesiometer or a Hargreaves Apparatus (Ugo Basile, Comerio, VA, Italy) detecting withdrawal latency of the hind paws after mechanical stimulation. […] Slow movements of the paw were not counted. Paw withdrawal latencies (PWL) were determined in seconds (s) ±0.1 with a cut-off time of 20 s. The non-injected and injected paws were measured alternately in intervals of 5-10 min. […] The non-injected and injected paws were measured alternately in intervals of 5-10 min. […]

CYP3A4 [2] = target: T2, CYP3A4 (Homo sapiens, UniProt P08684); test: in vitro
CYP2J2 = target: T3, CYP2J2 (Homo sapiens, UniProt P51589); test: CYP2J2 P450-Glo luciferase assay (FDA Approved Drug Library screen); conditions: read-out: Average inhibition CYP2J2 (%)
T3 sequence (P51589 1-502): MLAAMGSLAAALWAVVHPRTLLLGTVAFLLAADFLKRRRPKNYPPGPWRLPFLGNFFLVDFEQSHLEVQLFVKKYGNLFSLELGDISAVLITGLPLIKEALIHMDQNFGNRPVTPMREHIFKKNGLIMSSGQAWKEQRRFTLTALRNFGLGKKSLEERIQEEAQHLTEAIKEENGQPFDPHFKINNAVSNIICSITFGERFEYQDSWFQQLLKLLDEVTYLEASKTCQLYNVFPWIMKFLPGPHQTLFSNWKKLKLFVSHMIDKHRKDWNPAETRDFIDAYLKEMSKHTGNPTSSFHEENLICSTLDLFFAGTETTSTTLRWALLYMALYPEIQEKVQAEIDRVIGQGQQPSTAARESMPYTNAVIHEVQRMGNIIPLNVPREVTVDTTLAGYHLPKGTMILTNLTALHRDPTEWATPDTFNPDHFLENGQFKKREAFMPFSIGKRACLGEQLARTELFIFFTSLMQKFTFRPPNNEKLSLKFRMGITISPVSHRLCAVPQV

CYP3A4 [3] = target: T2, CYP3A4; test: CYP3A4 P450-Glo luciferase assay (unselective control)
[4] = test system: lamina II neurons of spinal cord slices; test: sEPSC recordings in lamina II neurons of spinal cord slices; assay type: cell-based
Experimental: (d) Frequency of sEPSCs. […] (E) Amplitude of sEPSCs. […] To confirm the effect of TRPV1 sensitization by 9,10-EpOME with electrophysiological means, the inventors measured sEPSCs from lamina II neurons of spinal cord slices using two capsaicin stimulations [1 μM] and incubating the cells prior to the second capsaicin stimulus with 9,10-EpOME [1 μM] (FIG. 3C). […] In combination with capsaicin, however, the sEPSC frequency was strongly potentiated (FIG. 3D). However, no difference in the amplitude of sEPSCs could be observed with either 9,10-EpOME, […] or the combination of both substances (FIG. 3E).

[5] = intraplantar injection in hind paws

T2 sequence (P08684 whole entry): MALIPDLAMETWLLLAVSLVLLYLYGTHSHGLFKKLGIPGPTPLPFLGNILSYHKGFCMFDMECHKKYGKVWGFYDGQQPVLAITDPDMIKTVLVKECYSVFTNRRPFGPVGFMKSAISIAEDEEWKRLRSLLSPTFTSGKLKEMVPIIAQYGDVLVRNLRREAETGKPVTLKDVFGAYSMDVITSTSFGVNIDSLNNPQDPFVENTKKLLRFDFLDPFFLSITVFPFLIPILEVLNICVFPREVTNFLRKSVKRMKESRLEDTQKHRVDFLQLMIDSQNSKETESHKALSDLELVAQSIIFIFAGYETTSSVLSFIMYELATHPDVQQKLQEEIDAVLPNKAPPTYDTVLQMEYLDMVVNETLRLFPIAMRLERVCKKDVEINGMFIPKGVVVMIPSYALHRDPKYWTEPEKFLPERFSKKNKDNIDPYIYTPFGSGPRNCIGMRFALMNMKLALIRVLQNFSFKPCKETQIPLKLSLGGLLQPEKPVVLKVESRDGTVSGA
Chain of TRPV1 (Q704Y3 whole entry): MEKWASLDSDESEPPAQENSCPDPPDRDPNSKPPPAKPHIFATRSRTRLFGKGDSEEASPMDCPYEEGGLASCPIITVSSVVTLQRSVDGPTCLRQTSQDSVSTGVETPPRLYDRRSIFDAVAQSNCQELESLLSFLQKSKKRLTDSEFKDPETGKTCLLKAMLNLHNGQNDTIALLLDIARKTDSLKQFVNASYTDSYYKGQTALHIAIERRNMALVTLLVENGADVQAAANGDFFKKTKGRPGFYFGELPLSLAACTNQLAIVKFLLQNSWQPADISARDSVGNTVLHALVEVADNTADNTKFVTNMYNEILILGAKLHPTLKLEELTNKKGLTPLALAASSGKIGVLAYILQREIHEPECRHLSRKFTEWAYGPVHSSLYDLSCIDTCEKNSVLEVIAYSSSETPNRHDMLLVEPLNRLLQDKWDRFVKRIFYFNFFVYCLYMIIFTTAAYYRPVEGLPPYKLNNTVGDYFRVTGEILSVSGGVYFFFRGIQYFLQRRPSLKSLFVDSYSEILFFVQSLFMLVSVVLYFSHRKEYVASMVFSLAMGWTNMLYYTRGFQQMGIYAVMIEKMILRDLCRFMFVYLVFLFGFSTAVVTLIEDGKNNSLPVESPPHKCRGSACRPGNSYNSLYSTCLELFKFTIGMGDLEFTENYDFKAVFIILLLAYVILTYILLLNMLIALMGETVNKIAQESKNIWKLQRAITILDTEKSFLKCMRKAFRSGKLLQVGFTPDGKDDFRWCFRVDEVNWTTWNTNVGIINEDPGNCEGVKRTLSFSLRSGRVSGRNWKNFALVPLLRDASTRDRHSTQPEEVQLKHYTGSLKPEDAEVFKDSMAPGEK

Structure (SMILES) | inhibition at 30 min, 10 μM (CYP3A4 [2]) [%] | inhibition at 10 µM (CYP2J2) [%] | further results
CN(C)CCCn1cc(C2=C(c3c[nH]c4ccccc34)C(=O)NC2=O)c2ccccc21 |  |  | effect of kinase inhibitor on 9,10-EpOME-evoked TRPV1 sensitization (TRPV1): did not have any effect
CCCCC/C=C\CC1OC1CCCCCCCC(=O)O (stereo not shown) [9,10-EpOME, 9,10-epoxy-12Z-octadecenoic acid] |  |  | duration of significant reduction of mechanical thresholds (wild type BL/6N mice; [5]): 2 h; duration of significant reduction of thermal thresholds (wild type BL/6N mice; [5]): 1 h; duration of decrease of mechanical thresholds (wild type BL/6N mice; intrathecal injection): up to 1.5 h; thermal thresholds (wild type BL/6N mice; intrathecal injection, 30 minutes after i.th. injection): significant but rather weak reduction
CC(C)(C)c1ccc(/C=C/C(=O)Nc2ccc3c(c2)OCCO3)cc1 [AMG 9810] |  |  | block of the second 9,10-EpOME-evoked calcium transient (DRG neurons): could block
Cl.Cl.O=S(=O)(NCCNC/C=C/c1ccc(Br)cc1)c1cccc2cnccc12 [H89 dihydrochloride] |  |  | effect of kinase inhibitor on 9,10-EpOME-evoked TRPV1 sensitization (TRPV1): significant reduction
CC(C)c1ccc(NC(=O)Cn2cnc3c2c(=O)n(C)c(=O)n3C)cc1 [HC-030031] |  |  | block of the second 9,10-EpOME-evoked calcium transient (DRG neurons): but not the TRPA1 antagonist HC-030031 could block
CC(C)(C)c1ccc(C(O)CCCN2CCC(C(O)(c3ccccc3)c3ccccc3)CC2)cc1 (stereo not shown) [Terfenadine] |  |  | remaining concentrations of all measured epoxylipids in DRGs, spinal dorsal horn and plasma (CYP2J6; 1 mg·kg-1 i.v.): reduced significantly; 9,10-EpOME concentrations in sciatic nerve, DRGs and dorsal spinal cord (CYP2J6; 1 mg·kg-1 i.v., two hours, eight days after paclitaxel): significant reduction; levels of epoxylipids reduced to (CYP2J6; terfenadine treatment): about 50%; duration of increase in mechanical thresholds ([1]; 1 or 2 mg·kg-1 i.v., eight days after paclitaxel): 2 h; difference between the two doses in mechanical thresholds ([1]; 1 versus 2 mg·kg-1 i.v.): no significant differences; mechanical thresholds of paclitaxel treated mice ([1]; terfenadine 1 or 2 mg·kg-1 i.v., loratadine 1 mg kg-1 i.v., eight days after paclitaxel): significant increase
C[C@]12CC[C@@H]3c4ccc(O)cc4CC[C@H]3[C@@H]1CC[C@@H]2O [c054, Estradiol] | 12.1 | 84.4 | 
CC(COc1ccccc1)N(CCCl)Cc1ccccc1 (stereo not shown) [c089, Phenoxybenzamine•HCl] |  | 75 | inhibition at 30 min, 10 μM (CYP3A4 [3]): 17.9%
CCC(=O)O[C@]1(C(=O)CCl)[C@@H](C)C[C@H]2[C@@H]3CCC4=CC(=O)C=C[C@]4(C)[C@@]3(F)[C@@H](O)C[C@@]21C [c146, Clobetasol Propionate] | -4.3 | 78.2 | 
CC(C)OC(=O)C(C)(C)Oc1ccc(C(=O)c2ccc(Cl)cc2)cc1 [c246, Fenofibrate] | -26.2 | 78 | 
C#C[C@]1(O)CC[C@H]2[C@@H]3CCC4=CC(=O)CC[C@@H]4[C@H]3CC[C@@]21CC [c314, Levonorgestrel] | 5.1 | 64 | 
CC1(C)O[C@@H]2C[C@H]3[C@@H]4CCC5=CC(=O)CC[C@]5(C)[C@@]4(F)[C@@H](O)C[C@]3(C)[C@]2(C(=O)CCl)O1 [c440, Halcinonide] | -18.5 | 76.8 | 
CC(C)/N=c1\cc2n(-c3ccc(Cl)cc3)c3ccccc3nc-2cc1Nc1ccc(Cl)cc1 [c516, Clofazimine] | -82.9 | 79.1 | 
Cc1[nH]cnc1CN1CCc2c(c3ccccc3n2C)C1=O [c595, Alosetron•HCl] | 14 | 81.8 | 
Cc1cccc(CN2CCN(C(c3ccccc3)c3ccc(Cl)cc3)CC2)c1 (stereo not shown) [c608, Meclizine Dihydrochloride] | 17.4 | 71.5 | 
COc1cc(CNC(=O)CCCC/C=C/C(C)C)ccc1O [capsaicin] |  |  | frequency of sEPSCs, substance alone ([4]; 1 mM as printed in legend, baseline 6.9±0.4 Hz, n=5 neurons): 13.7±0.4 Hz; amplitude of sEPSCs ([4]; n=5 neurons/group): no significant effects
